Legend:
COLO 205 = test: Antiproliferative activity against human COLO205 cells by MTT assay; format: functional, cell-based
HeLa = test: Antiproliferative activity against human HeLa cells by MTT assay; format: functional, cell-based
MCF7 = test: Antiproliferative activity against human MCF7 cells by MTT assay; format: functional, cell-based
HepG2 = test: Antiproliferative activity against human HepG2 cells by MTT assay; format: functional, cell-based
HEK293 = test: Antiproliferative activity against human HEK293 cells by MTT assay; format: cell-based

Row | Compound | IC50 (COLO 205; read-out: IC50) | IC50 (COLO 205; read-out: pIC50 (converted)) [µM] | IC50 (HeLa; read-out: IC50) | IC50 (HeLa; read-out: pIC50 (converted)) [µM] | IC50 (MCF7; read-out: IC50) | IC50 (MCF7; read-out: pIC50 (converted)) [µM] | IC50 (HepG2) | IC50 (HEK293)
1 | Cc1ccc(/C=N/NC(=O)c2oc3nc(-c4cccs4)cc(C(F)(F)F)c3c2N)cc1 | 21.2 µM | 10.2 | 24.4 µM | 9.12 | 18.7 µM | 11.2 | 19.8 µM | 78 µM
2 | Nc1c(C(=O)NC2CCCC2)oc2nc(-c3ccccc3)cc(C(F)(F)F)c12 | 51.1 µM | 51.3 | 25.8 µM | 25.7 | 59.8 µM | 60.3 | 32.4 µM | 85 µM
3 | O=c1c2oc3nc(-c4ccccc4)cc(C(F)(F)F)c3c2ncn1/N=C/c1ccccc1 | > 220 µg/mL | – | > 220 µg/mL | – | > 220 µg/mL | – | > 220 µg/mL | > 220 µg/mL
4 | Nc1c(C(=O)N/N=C/c2ccc(Cl)cc2)oc2nc(-c3cccs3)cc(C(F)(F)F)c12 | 7.8 µM | 7.94 | 8 µM | 7.94 | 7.4 µM | 7.41 | 8.1 µM | 83 µM
5 | O=c1c2oc3nc(-c4ccccc4)cc(C(F)(F)F)c3c2ncn1/N=C/c1ccc(Br)cc1 | > 220 µg/mL | – | > 220 µg/mL | – | > 220 µg/mL | – | > 220 µg/mL | > 220 µg/mL
6 | Cc1nc2c(oc3nc(-c4cccs4)cc(C(F)(F)F)c32)c(=O)n1C1CCCC1 | > 220 µg/mL | – | > 220 µg/mL | – | > 220 µg/mL | 11.7 | > 220 µg/mL | 124 µM
7 | CCCn1cnc2c(oc3nc(-c4cccs4)cc(C(F)(F)F)c32)c1=O | > 220 µg/mL | – | > 220 µg/mL | – | > 220 µg/mL | – | > 220 µg/mL | > 220 µg/mL
8 | CCNC(=O)c1oc2nc(-c3ccccc3)cc(C(F)(F)F)c2c1N | 29.2 µM | 28.8 | 36.2 µM | 36.3 | 54 µM | 53.7 | 42.8 µM | 70 µM
9 | O=c1c2oc3nc(-c4cccs4)cc(C(F)(F)F)c3c2ncn1/N=C/c1ccccc1 | > 220 µg/mL | – | 42.3 µM | 42.7 | > 220 µg/mL | – | > 220 µg/mL | 90 µM
10 | CCn1cnc2c(oc3nc(-c4cccs4)cc(C(F)(F)F)c32)c1=O | > 220 µg/mL | – | > 220 µg/mL | – | > 220 µg/mL | – | > 220 µg/mL | > 220 µg/mL
11 | Nc1c(C(=O)NC2CCCC2)oc2nc(-c3cccs3)cc(C(F)(F)F)c12 | 18.4 µM | 18.6 | 21.8 µM | 21.9 | 22.9 µM | 22.9 | 20.8 µM | 51 µM
12 | CNC(=O)c1oc2nc(-c3cccs3)cc(C(F)(F)F)c2c1N | 17.8 µM | 17.8 | 15.6 µM | 15.5 | 18 µM | 18.2 | 12.3 µM | 75 µM
13 | Cc1nc2c(oc3nc(-c4ccccc4)cc(C(F)(F)F)c32)c(=O)n1C | > 220 µg/mL | – | > 220 µg/mL | – | > 220 µg/mL | – | > 220 µg/mL | > 220 µg/mL
14 | O=c1c2oc3nc(-c4cccs4)cc(C(F)(F)F)c3c2ncn1/N=C/c1ccc(Cl)cc1 | 51.2 µM | 51.3 | > 220 µg/mL | – | 42.1 µM | 42.7 | > 220 µg/mL | 102 µM
15 | Nc1c(C(=O)N/N=C/c2ccccc2)oc2nc(-c3cccs3)cc(C(F)(F)F)c12 | 9.7 µM | – | 11.8 µM | 11.7 | 12.1 µM | 12 | 9.9 µM | 72 µM
16 | Cc1ccc(/C=N/n2cnc3c(oc4nc(-c5ccccc5)cc(C(F)(F)F)c43)c2=O)cc1 | > 220 µg/mL | – | > 220 µg/mL | – | > 220 µg/mL | – | > 220 µg/mL | > 220 µg/mL
17 | Nc1c(C(=O)N/N=C/c2ccccc2)oc2nc(-c3ccccc3)cc(C(F)(F)F)c12 | 12.2 µM | 12.3 | 13.4 µM | 13.5 | 14.2 µM | 14.1 | 13.1 µM | 70 µM
18 | Cc1ccc(/C=N/n2cnc3c(oc4nc(-c5cccs5)cc(C(F)(F)F)c43)c2=O)cc1 | > 220 µg/mL | – | 42.3 µM | 42.7 | 29.7 µM | 29.5 | > 220 µg/mL | > 220 µg/mL
19 | CCn1cnc2c(oc3nc(-c4ccccc4)cc(C(F)(F)F)c32)c1=O | > 220 µg/mL | – | > 220 µg/mL | – | 82.4 µM | 83.2 | > 220 µg/mL | 121 µM
20 | Cc1nc2c(oc3nc(-c4cccs4)cc(C(F)(F)F)c32)c(=O)n1C | > 220 µg/mL | – | > 220 µg/mL | – | > 220 µg/mL | – | > 220 µg/mL | > 220 µg/mL
21 | O=c1[nH]cc(F)c(=O)[nH]1 [FLUOROURACIL] | – | – | – | – | – | – | 1.7 µM | 19.6 µM

Source: ChEMBL document CHEMBL4118210, “Synthesis of novel hetero ring fused pyridine derivatives; Their anticancer activity, CoMFA and CoMSIA studies” (Bioorg Med Chem Lett, 2018)
